Test systems include HOP-62 NSCLC; OVCAR-3 ovarian; CCRF-CEM leukemia; ACHN renal; MOLT-4 leukemia; 786-0 renal; HL-60(TB) leukemia; NCI-H226 lung; SF-539 CNS; HOP-92 NSCLC.
What all share (experiment): NCI-60 cell line screen, 48 h

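Values below derive from 48-hour exposures of cells grown in 96-well plates, with endpoints linearly interpolated between the two concentrations bracketing the appropriate inhibition level. GI50 marks 50% less growth. TGI: concentration producing complete growth inhibition.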

The record followed here is PubChem BioAssay (NCI).

As for `COc1cccc(Cc2c3cc(OC)ccc3cc[n+]2C)c1`, the TGI with HOP-62 NSCLC, with OVCAR-3 ovarian, in the experiment with CCRF-CEM leukemia, in the experiment on ACHN renal, in the experiment with MOLT-4 leukemia and in the experiment on 786-0 renal was above 100 µM each time.
In the case of `CCOC(=O)C1SC(=Nc2ccc(Cl)c(Cl)c2)N=C1C` (centres undefined), the TGI with HL-60(TB) leukemia is 59.7 µM; in the experiment with HOP-62 NSCLC, above 100 µM; with OVCAR-3 ovarian, 60.6 µM; with CCRF-CEM leukemia, 31.3 µM; in the experiment with NCI-H226 lung, 67.7 µM; in the experiment with ACHN renal, above 100 µM. Also, the TGI with MOLT-4 leukemia was above 100 µM; in the experiment on SF-539 CNS it was above 100 µM; in the experiment on 786-0 renal, 31.3 µM.
For `COc1ccccc1NC(=O)C1=C(C)NC(C)=C(C(=O)Nc2ccccc2OC)C1c1ccc(C)cc1`, the TGI in the experiment on HOP-62 NSCLC, in the experiment on OVCAR-3 ovarian, in the experiment with NCI-H226 lung, in the experiment with ACHN renal, with HOP-92 NSCLC and in the experiment with SF-539 CNS was above 100 µM throughout. The molecule further showed a TGI in the experiment with 786-0 renal above 100 µM.
As for `Cc1ccc2c(c1)NC(=O)CC(c1ccccc1)=N2`, the TGI with HOP-62 NSCLC is above 100 µM; in the experiment with OVCAR-3 ovarian, above 100 µM; with NCI-H226 lung, above 100 µM; with ACHN renal, above 100 µM; with MOLT-4 leukemia, 85.8 µM; in the experiment with HOP-92 NSCLC, above 100 µM. In addition, the TGI in the experiment on SF-539 CNS and with 786-0 renal was above 100 µM each time.
Consider `O=c1cc(-c2ccccc2)[nH]n1-c1nc2ccccc2[nH]1`, for which the GI50 with HL-60(TB) leukemia was 4.52 µM; in the experiment on HOP-62 NSCLC, 4.96 µM; with OVCAR-3 ovarian it was 4.46 µM; in the experiment on CCRF-CEM leukemia it was 1.22 µM; with NCI-H226 lung, 9.49 µM; with ACHN renal, 4.36 µM. Besides, the GI50 in the experiment with HOP-92 NSCLC is 4.25 µM; in the experiment on SF-539 CNS, 3.94 µM; with 786-0 renal, 4.8 µM. Also, the TGI in the experiment with HL-60(TB) leukemia was 29.1 µM; in the experiment on HOP-62 NSCLC, above 100 µM; in the experiment on OVCAR-3 ovarian, above 100 µM; in the experiment with CCRF-CEM leukemia, above 100 µM; with NCI-H226 lung it was above 100 µM; in the experiment on ACHN renal, above 100 µM. Moreover, the values for the TGI with HOP-92 NSCLC, with SF-539 CNS and with 786-0 renal were 47.7 µM, 27.1 µM and 46.6 µM, respectively.
`COc1ccc(-n2c3c(c4c(CN5CCOCC5)c(O)ccc42)CCc2ccccc2C3=O)cc1`: the GI50 in the experiment on HL-60(TB) leukemia is 22.3 µM; in the experiment on HOP-62 NSCLC it was above 100 µM; in the experiment on OVCAR-3 ovarian it was 25.4 µM; in the experiment on NCI-H226 lung, 54.5 µM; in the experiment on ACHN renal, above 100 µM; with MOLT-4 leukemia, 45.9 µM. The GI50 in the experiment with HOP-92 NSCLC was 59.5 µM; with SF-539 CNS, 61 µM; with 786-0 renal it was 75.8 µM. The TGI in the experiment with HL-60(TB) leukemia, with HOP-62 NSCLC, in the experiment with OVCAR-3 ovarian, in the experiment with NCI-H226 lung, with ACHN renal and with MOLT-4 leukemia was above 100 µM throughout. Also, the TGI in the experiment on HOP-92 NSCLC, in the experiment with SF-539 CNS and with 786-0 renal was above 100 µM throughout.
On to `O=C(CC(=O)N1N=C(N2c3ccccc3Sc3ccccc32)CC1c1ccccc1)Nc1ccc(Cl)cc1` (centres undefined), for which the TGI in the experiment on HOP-62 NSCLC, in the experiment on OVCAR-3 ovarian, in the experiment with ACHN renal, with HOP-92 NSCLC, with SF-539 CNS and with 786-0 renal was above 100 µM each time.
For the molecule `CC1=CCC23C(C1)OC(Br)(C=CC2(C)O)C3(C)C` (centres undefined), the TGI with HL-60(TB) leukemia, in the experiment on CCRF-CEM leukemia, with NCI-H226 lung, in the experiment with ACHN renal, in the experiment with HOP-92 NSCLC and with SF-539 CNS was above 100 µM in each case. In the experiment with 786-0 renal, the TGI is above 100 µM.
`Cc1cc(=O)oc2cc(OCc3c(F)cccc3Cl)ccc12`: the TGI with HL-60(TB) leukemia was above 100 µM; in the experiment on HOP-62 NSCLC, 38 µM; in the experiment with OVCAR-3 ovarian, above 100 µM; in the experiment with NCI-H226 lung, above 100 µM; with ACHN renal, above 100 µM; in the experiment with HOP-92 NSCLC it was 33.2 µM. In addition, the TGI in the experiment with SF-539 CNS was found to be 48.7 µM; in the experiment with 786-0 renal, 40.2 µM.
Take `O=C(N/N=C/c1ccccc1O)C(=O)Nc1ccc(F)cc1`: the GI50 is 2.02 µM with HL-60(TB) leukemia; 10.7 µM in the experiment with HOP-62 NSCLC; 3.18 µM in the experiment with OVCAR-3 ovarian; 1.35 µM in the experiment on CCRF-CEM leukemia; 16 µM with NCI-H226 lung; 3.02 µM with ACHN renal. In addition, the GI50 was 2.87 µM in the experiment with MOLT-4 leukemia, 2.98 µM in the experiment with SF-539 CNS and 6.96 µM in the experiment on 786-0 renal. Also, the TGI is 8.75 µM in the experiment on HL-60(TB) leukemia; above 100 µM with HOP-62 NSCLC; above 100 µM with OVCAR-3 ovarian; 13.4 µM in the experiment with CCRF-CEM leukemia; above 100 µM in the experiment with NCI-H226 lung; above 100 µM in the experiment with ACHN renal. Besides, the TGI in the experiment with MOLT-4 leukemia was above 100 µM; with SF-539 CNS, 18.5 µM; in the experiment with 786-0 renal it was above 100 µM.
On to `Cc1ccc(-c2cc(C3=CC(=O)C=CC3=O)n(-c3ccc(S(N)(=O)=O)cc3)n2)cc1`, for which the GI50 with HL-60(TB) leukemia is 37.3 µM; in the experiment on HOP-62 NSCLC, 69.7 µM; in the experiment on OVCAR-3 ovarian it was 44.5 µM; in the experiment on CCRF-CEM leukemia, above 100 µM; in the experiment with NCI-H226 lung, 54 µM; with ACHN renal, 42.9 µM. Further, the GI50 is 9.06 µM with MOLT-4 leukemia, 35.6 µM in the experiment with HOP-92 NSCLC and 26.6 µM in the experiment with 786-0 renal. Besides, the TGI in the experiment with HL-60(TB) leukemia, with HOP-62 NSCLC, with OVCAR-3 ovarian, in the experiment with CCRF-CEM leukemia, in the experiment with NCI-H226 lung and with ACHN renal was above 100 µM in each case. In addition, the TGI in the experiment with MOLT-4 leukemia is above 100 µM; in the experiment on HOP-92 NSCLC, above 100 µM; in the experiment with 786-0 renal, 58.8 µM.
In the case of `COc1ccc(/C=C\c2cc(OC)c(OC)c(OC)c2)cc1OC(=O)CCC(=O)O`, the TGI in the experiment with HL-60(TB) leukemia is below 0.0001 µM; with HOP-62 NSCLC it was above 100 µM; with CCRF-CEM leukemia, above 100 µM; in the experiment with NCI-H226 lung, below 0.0001 µM; in the experiment with ACHN renal it was above 100 µM; in the experiment with 786-0 renal it was above 100 µM. In addition, in the experiment on 786-0 renal, the GI50 is 0.0121 µM.
Take `O=C(C(=O)N1CC2C=CC1CC2)c1c[nH]c2ccccc12` (centres undefined): the TGI with HL-60(TB) leukemia, with HOP-62 NSCLC, in the experiment on CCRF-CEM leukemia, with NCI-H226 lung, in the experiment on ACHN renal and with MOLT-4 leukemia was above 100 µM in each case. Moreover, the TGI in the experiment with HOP-92 NSCLC, in the experiment with SF-539 CNS and in the experiment with 786-0 renal was above 100 µM each time.
